Values of other authors as cited in US20050244367A1 (priority 2004, published 2005).

Test system: PLA2
Details: art-known PLA2 inhibitor classes, order of magnitude given in words

SMILES	IC50
CC(C)c1ccc2c(c1)CCC1C(C)(CNCCC(=O)c3ccc(F)cc3)CCCC21C (stereo not shown)	μM range
O=C(O)CC[C@@H](CSc1ccc(Cc2ccccc2)cc1)NC(=O)CCCCCCc1ccccc1	sub μM range
CCN(CC)CCN(Cc1ccc(-c2ccc(C(F)(F)F)cc2)cc1)C(=O)Cn1cc(Cc2ccn(C)n2)c(=O)nc1SCc1ccc(F)cc1	nM or subnM range
CC(C)c1ccc2c(c1)CCC1C(C)(CNCCC(N)c3ccc(F)cc3)CCCC21C (stereo not shown)	μM range
CCc1c(CC(N)=O)c2cc(OCCCP(=O)(O)O)ccc2n1Cc1ccccc1	sub μM range
COC1=CCC2=C(CCC3C2CC[C@@]2(C)C3CC[C@@H]2N(C)CCCN(C)C)C1 (stereo partly shown)	sub μM range
CCC(CCCCSc1ccc(C)cc1)c1ccc(F)cc1 (stereo not shown)	μM range
